In ChEMBL document CHEMBL1129700, “Utilization of wieland furoxan synthesis for preparation of 4-aryl-1,2,5-oxadiazole-3-yl carbamate derivatives having potent anti-HIV activity” (Bioorg Med Chem Lett, 1996):

How the values were obtained:
MT4 [1] = assay: Tested for 50% effective concentration based on the inhibition of HIV-I induced cytopathic effect in MT-4 cells; format: functional, cell-based; conditions: Homo sapiens
MT4 [2] = assay: Tested for 50% cytotoxic concentration based on the reduction of viability in mock-infected MT-4 cells; format: functional; conditions: Homo sapiens
[3] = Selectivity index based on the ratio of CC50 to EC50; format: functional

| Compound | EC50 (MT4 [1]) [µM] | CC50 (MT4 [2]) [µM] | SI [3] |
| --- | --- | --- | --- |
| CN(C)C(=O)Oc1nsnc1-c1ccccc1 | 5.6 | 46.8 | 8 |
| CCCN(C)C(=O)Oc1nsnc1-c1c(Cl)cccc1Cl |  |  | 10000 |
| CCCN(C)C(=O)Oc1no[n+]([O-])c1-c1ccccc1 | 20 | 25 | 1 |
| CCCN(C)C(=O)Oc1no[n+]([O-])c1-c1c(Cl)cccc1Cl | 0.12 | 8.6 | 72 |
| Cc1cn([C@H]2C[C@H](N=[N+]=[N-])[C@@H](CO)O2)c(=O)[nH]c1=O [ZIDOVUDINE] | 0.004 | 3.2 | 800 |
| CCCN(C)C(=O)Oc1nonc1-c1ccccc1 | 2 | 13 | 6.5 |
